Like-named read-outs stand apart in the source and are kept apart here. Where only a bound is given, the exact number is not on record here.

Assay [1] concerns the target T1, 5-HT3AB receptors (Homo sapiens, UniProt O95264+P46098).
T1 sequence (P46098 24-478): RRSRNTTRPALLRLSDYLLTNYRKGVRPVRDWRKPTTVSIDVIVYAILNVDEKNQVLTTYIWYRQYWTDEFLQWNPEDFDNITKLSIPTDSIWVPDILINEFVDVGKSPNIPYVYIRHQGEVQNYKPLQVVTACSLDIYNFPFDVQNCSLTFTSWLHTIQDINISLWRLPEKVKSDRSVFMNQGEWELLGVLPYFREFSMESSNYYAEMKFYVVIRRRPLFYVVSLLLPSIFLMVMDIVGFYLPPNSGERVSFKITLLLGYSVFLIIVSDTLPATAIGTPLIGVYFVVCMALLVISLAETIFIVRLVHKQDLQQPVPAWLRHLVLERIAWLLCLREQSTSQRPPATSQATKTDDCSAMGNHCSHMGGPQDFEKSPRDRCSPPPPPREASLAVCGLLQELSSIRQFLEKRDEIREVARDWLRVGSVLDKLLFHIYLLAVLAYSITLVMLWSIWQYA
T1 sequence (O95264 22-441): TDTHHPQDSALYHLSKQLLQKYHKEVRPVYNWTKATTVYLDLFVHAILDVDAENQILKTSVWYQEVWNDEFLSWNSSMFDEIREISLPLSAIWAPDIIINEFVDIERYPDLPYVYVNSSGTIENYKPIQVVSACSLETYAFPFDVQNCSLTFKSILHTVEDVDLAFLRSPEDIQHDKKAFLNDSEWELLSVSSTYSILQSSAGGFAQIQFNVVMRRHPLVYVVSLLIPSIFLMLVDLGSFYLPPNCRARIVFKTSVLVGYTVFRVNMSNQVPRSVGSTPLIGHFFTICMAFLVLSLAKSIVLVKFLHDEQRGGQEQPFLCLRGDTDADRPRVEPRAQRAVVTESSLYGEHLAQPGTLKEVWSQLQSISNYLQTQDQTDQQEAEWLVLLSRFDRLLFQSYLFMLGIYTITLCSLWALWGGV
Kind of assay: Competition binding with [^3H]VUF10166 at 5-HT3AB receptors.

Assay [2] has as its target T1, 5-HT3AB receptors. The experiment in a line: biochemical.
The target in assay [3] is T2, 5-HT3A receptors (Homo sapiens, UniProt P46098).
T2 sequence (P46098 24-478): T1 sequence (P46098 24-478)
The experiment in a line: biochemical.

The target in assay [4] is T2, 5-HT3A receptors.
For assay [5], the target named is T2, 5-HT3A receptors. The experiment in a line: Competition binding with [^3H]VUF10166 at 5-HT3A receptors.
Assay [6] concerns the target T2, 5-HT3A receptors. The experiment in a line: biochemical. The format is binding. Also noted: expressed in transfected cells; host or cells: HEK 293. The following applies: 5-HT3A.
For another assay, the target named is α7 nACh receptors (Homo sapiens, UniProt P36544). Kind of assay: Saturation binding of [^3H]VUF10166 on α7 nACh receptors. The following applies: data not shown.
A further assay deals with T3, 5-HT3A receptor F226C (Homo sapiens, UniProt P46098, F221C).
T3 construct: expressed in transfected cells; host or cells: HEK 293
Kind of assay: Saturation binding of [^3H]VUF10166 at 5-HT3A receptor mutant. The following applies: F226C Kd versus wild type. The procedure:
(§1) Mutagenesis was performed using the QuikChange method (Agilent Technologies Inc., California, USA) on human 5-HT3A cDNA (accession number: P46098) cloned into pcDNA3.1 (Invitrogen, Paisley, UK). Cysteine residues were substituted for amino acids throughout each of the binding loops A–E (Fig. 1). To facilitate comparisons with previous work, we use the numbering of the equivalent residues in the mouse 5-HT3A subunit; for human numbering 5 should be subtracted from each residue number.
(§2) All data were analysed using GraphPad Prism 4.03. […].

For the next assay, the target named is T4, 5-HT3A receptor Y153C (Homo sapiens, UniProt P46098, Y148C).
T4 construct: expressed in transfected cells; host or cells: HEK 293
The description is as above. The following applies: Y153C Kd versus wild type. The procedure: as §1, §2

The next assay concerns the target T5, 5-HT3A receptor L126C (Homo sapiens, UniProt P46098, L121C).
T5 construct: expressed in transfected cells; host or cells: HEK 293
The assay is described as above. The following applies: L126C Kd versus wild type. The procedure:
as §1, §2

The target of assay [7] is T2, 5-HT3A receptors. The experiment in a line: Kinetic measurements (association, dissociation) at 5-HT3A receptors. Also noted: expressed in transfected cells; host or cells: HEK 293. The format is binding.
In assay [8] the target is T1, 5-HT3AB receptors. The experiment in a line: Kinetic measurements (association, dissociation) at 5-HT3AB receptors. The class given is binding. Also noted: expressed in transfected cells; host or cells: HEK 293. The following applies: for koff: from kobs plot.
For another assay, the target named is T6, 5-HT3A receptor N128C (Homo sapiens, UniProt P46098, N123C).
T6 construct: expressed in transfected cells; host or cells: HEK 293
The experiment in a line: Saturation binding of [^3H]VUF10166 at 5-HT3A receptor mutant. The following applies: N128C Kd versus wild type. The procedure: as §1
(§3) All data were analysed using GraphPad Prism 4.03.

Another assay has as its target T7, 5-HT3A receptor Q151C (Homo sapiens, UniProt P46098, Q146C).
T7 construct: expressed in transfected cells; host or cells: HEK 293
Described as above. The following applies: Q151C Kd versus wild type. The procedure: as §1, §3

Another assay has as its target T8, 5-HT3A receptor I71C (Homo sapiens, UniProt P46098, I66C).
T8 construct: expressed in transfected cells; host or cells: HEK 293
The description is as above. The following applies: I71C Kd versus wild type. The protocol: as §1, §3

The target of a further assay is T9, 5-HT3A receptor H185C (Homo sapiens, UniProt P46098, H180C).
T9 construct: expressed in transfected cells; host or cells: HEK 293
The assay is described as above. The following applies: H185C Kd versus wild type. The protocol: as §1, §3

For the next assay, the target named is T10, 5-HT3A receptor N232C (Homo sapiens, UniProt P46098, N227C).
T10 construct: expressed in transfected cells; host or cells: HEK 293
The description is as above. The following applies: N232C Kd versus wild type. The procedure: as §1, §3

The target of the next assay is T11, 5-HT3A receptor R145C (Homo sapiens, UniProt P46098, R140C).
T11 construct: expressed in transfected cells; host or cells: HEK 293
The assay is described as above. The following applies: R145C Kd versus wild type. The protocol:
as §1, §3

The target in a further assay is T12, 5-HT3A receptor I139C (Homo sapiens, UniProt P46098, I134C).
T12 construct: expressed in transfected cells; host or cells: HEK 293
Described as above. The following applies: I139C Kd versus wild type. The procedure:
as §1, §3

The target of the next assay is T13, 5-HT3A receptor R92C (Homo sapiens, UniProt P46098, R87C).
T13 construct: expressed in transfected cells; host or cells: HEK 293
The assay is described as above. The following applies: R92C Kd versus wild type. The protocol: as §1, §3

The next assay deals with T14, 5-HT3A receptor K112C (Homo sapiens, UniProt P46098, K107C).
T14 construct: expressed in transfected cells; host or cells: HEK 293
Described as above. The following applies: K112C Kd versus wild type. The procedure:
as §1, §3

For another assay, the target named is T15, 5-HT3A receptor S114C (Homo sapiens, UniProt P46098, S109C).
T15 construct: expressed in transfected cells; host or cells: HEK 293
Described as above. The following applies: S114C Kd versus wild type. The procedure:
as §1, §3

Assay [9] has as its system 5-HT3AB receptors. Also noted: method as in Nakamura et al., 2013. The following applies: ref Nakamura et al., 2013; cited from earlier work.
In assay [10] the test system is 5-HT3A receptors. Also noted: method as in Nakamura et al., 2013. The following applies: ref Nakamura et al., 2013; cited from earlier work.

T13 sequence (P46098 24-478 R87C): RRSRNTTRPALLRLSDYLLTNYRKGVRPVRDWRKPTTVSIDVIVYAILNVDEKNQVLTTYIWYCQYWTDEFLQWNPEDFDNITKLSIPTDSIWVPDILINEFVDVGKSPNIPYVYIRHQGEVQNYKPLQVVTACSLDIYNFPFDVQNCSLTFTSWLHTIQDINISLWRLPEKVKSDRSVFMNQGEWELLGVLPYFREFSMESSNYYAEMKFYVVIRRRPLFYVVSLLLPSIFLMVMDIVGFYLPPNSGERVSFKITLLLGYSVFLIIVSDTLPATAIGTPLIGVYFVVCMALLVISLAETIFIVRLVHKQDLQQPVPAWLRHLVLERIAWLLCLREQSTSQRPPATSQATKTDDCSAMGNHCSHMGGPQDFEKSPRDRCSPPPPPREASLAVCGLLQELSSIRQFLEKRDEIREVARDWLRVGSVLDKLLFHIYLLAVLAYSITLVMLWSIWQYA
T9 sequence (P46098 24-478 H180C): as the sequence (P46098 24-478 R87C) above, with C64R, H157C counted along it
T11 sequence (P46098 24-478 R140C): as the sequence (P46098 24-478 R87C) above, with C64R, R117C counted along it
T4 sequence (P46098 24-478 Y148C): as the sequence (P46098 24-478 R87C) above, with C64R, Y125C counted along it
Chain of α7 nACh receptors (P36544 23-502): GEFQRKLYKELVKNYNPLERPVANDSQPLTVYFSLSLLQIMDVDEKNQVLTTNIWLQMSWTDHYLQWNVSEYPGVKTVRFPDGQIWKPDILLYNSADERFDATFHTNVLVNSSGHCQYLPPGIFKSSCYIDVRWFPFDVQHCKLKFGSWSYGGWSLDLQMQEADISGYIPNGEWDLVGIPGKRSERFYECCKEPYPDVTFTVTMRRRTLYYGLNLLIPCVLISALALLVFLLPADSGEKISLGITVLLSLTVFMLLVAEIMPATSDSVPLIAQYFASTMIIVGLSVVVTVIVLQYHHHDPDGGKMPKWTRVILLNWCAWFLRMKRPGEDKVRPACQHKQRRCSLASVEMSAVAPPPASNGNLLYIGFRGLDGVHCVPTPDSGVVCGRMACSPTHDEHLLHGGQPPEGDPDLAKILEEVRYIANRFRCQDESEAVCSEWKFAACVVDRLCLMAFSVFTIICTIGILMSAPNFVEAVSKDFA
T7 sequence (P46098 24-478 Q146C): as the sequence (P46098 24-478 R87C) above, with C64R, Q123C counted along it
T5 sequence (P46098 24-478 L121C): as the sequence (P46098 24-478 R87C) above, with C64R, L98C counted along it
T6 sequence (P46098 24-478 N123C): as the sequence (P46098 24-478 R87C) above, with C64R, N100C counted along it
T12 sequence (P46098 24-478 I134C): as the sequence (P46098 24-478 R87C) above, with C64R, I111C counted along it
T15 sequence (P46098 24-478 S109C): as the sequence (P46098 24-478 R87C) above, with C64R, S86C counted along it
T3 sequence (P46098 24-478 F221C): as the sequence (P46098 24-478 R87C) above, with C64R, F198C counted along it
T10 sequence (P46098 24-478 N227C): as the sequence (P46098 24-478 R87C) above, with C64R, N204C counted along it
T8 sequence (P46098 24-478 I66C): as the sequence (P46098 24-478 R87C) above, with I43C, C64R counted along it
T14 sequence (P46098 24-478 K107C): as the sequence (P46098 24-478 R87C) above, with C64R, K84C counted along it

Regarding `CN1CCC[C@H]1c1cccnc1` [Nicotine], the IC50 at 5-HT3AB receptors [1] was 174 nM; against 5-HT3AB receptors [2] it was 275 nM; against 5-HT3A receptors [3], 977 nM; at 5-HT3A receptors [5], 155 nM. Also, the “competition with [^3H]granisetron (in words)” value on 5-HT3A receptors [4] is recorded as “competed”.

Turning to `c1ccc2nc(N3CCNCC3)ccc2c1` [Quipazine], the “inhibition of specific [^3H]VUF10166 binding (in words)” value (from here on “inhibition of specific”) on 5-HT3AB receptors [1] (5-HT3AB) and on 5-HT3A receptors [5] (5-HT3A) was “inhibited” each time.

For `O=C1C[C@@H]2OCC=C3CN4CC[C@]56c7ccccc7N1[C@H]5[C@H]2[C@H]3C[C@H]46` [Strychnine], the IC50 at 5-HT3AB receptors [1] was 550 nM; at 5-HT3AB receptors [2], 14100 nM; against 5-HT3A receptors [3], 50100 nM; on 5-HT3A receptors [5] it was 1480 nM. The “competition with [^3H]granisetron (in words)” value at 5-HT3A receptors [4] was “competed”.

Consider `[3H]CN1CCN(c2nc3ccccc3nc2Cl)CC1` [[^3H]VUF10166, 2-chloro-3-(4-[^3H]methylpiperazin-1-yl)quinoxaline], for which the non-specific binding on 5-HT3A receptors [6] (non-specific binding determined with 2 mM quipazine) is on record as less than 5%. Further, the Bmax at 5-HT3A receptors [6] (paired samples) is listed as 2229 ± 158 fmol/mg. At α7 nACh receptors, the “specific saturable binding (in words)” value is recorded as “no specific saturable binding”.

With `[3H]CN1CCN(c2nc3ccccc3nc2Cl)CC1` [[^3H]VUF10166] [2-chloro-3-(4-[^3H]methylpiperazin-1-yl)quinoxaline], the Fold change at 5-HT3A receptor F226C is recorded as 7.6; on 5-HT3A receptor Y153C, 9.7; on 5-HT3A receptor L126C, 4.2; on 5-HT3A receptor N128C it was 3.3; on 5-HT3A receptor Q151C, 8.7; on 5-HT3A receptor I71C, 1.1. The Fold change on 5-HT3A receptor H185C was determined as 4.5; on 5-HT3A receptor N232C, 9.0; at 5-HT3A receptor R145C, 4.6; on 5-HT3A receptor I139C, 7.4; on 5-HT3A receptor R92C, 4.2; on 5-HT3A receptor K112C it was 1.6. In addition, the Fold change at 5-HT3A receptor S114C is listed as 1.0. On 5-HT3A receptors [7], the “kon determined directly from kobs values using Equ (5)” value amounted to 8.24e+07 M/min. Further, at 5-HT3A receptors [7] (dissociation in 2 mM quipazine), the “koff from dissociation, single exponential” value was 0.000183 ± 1.7e-05 s⁻¹. In addition, the koff at 5-HT3A receptors [7] (intercept of plot of kobs versus radioligand concentration) is 0.00017 s⁻¹; at 5-HT3AB receptors [8] (first component, [^3H]VUF10166 < 3 nM) it was 0.0004 s⁻¹; on 5-HT3AB receptors [8] (second component, [^3H]VUF10166 > 3 nM), 0.0027 s⁻¹. The kon at 5-HT3A receptors [7] (slope of plot of kobs versus radioligand concentration) worked out at 1.04e+06 M⁻¹ s⁻¹. For the same molecule, the “average kon determined from kobs (Equ (5))” value at 5-HT3AB receptors [8] (below 3 nM [^3H]VUF10166) stood at 8.77e+07 M/min. Besides, the “koff from dissociation, double exponential, fast component” value on 5-HT3AB receptors [8] (dissociation in 2 mM quipazine) came out at 0.00378 ± 0.000933 s⁻¹. The “koff from dissociation, double exponential, slow component” value on 5-HT3AB receptors [8] (dissociation in 2 mM quipazine) turned out to be 0.000167 ± 5e-05 s⁻¹.

As for `COc1cc2c3cc1Oc1cc(ccc1O)C[C@@H]1c4c(cc(OC)c(O)c4Oc4ccc(cc4)C[C@@H]3N(C)CC2)CC[N+]1(C)C` [d-Tubocurarine], the IC50 on 5-HT3AB receptors [1] was 3630 nM; at 5-HT3AB receptors [2], 51300 nM; against 5-HT3A receptors [3], 24500 nM; on 5-HT3A receptors [5], 3890 nM. Further, the “inhibition of specific” value at 5-HT3AB receptors [1] and on 5-HT3A receptors [5] was “inhibited” in each case.

As to `CC[C@@]1(O)C(=O)OCc2c1cc1n(c2=O)Cc2cc3c(CN(C)C)c(O)ccc3nc2-1` [topotecan], in the assay on 5-HT3AB receptors [9], the “effect on 5-HT3AB receptors (in words)” value is “potentiate”. In addition, in the assay with 5-HT3A receptors [10], the “effect on 5-HT3A receptors (in words)” value is “inhibit”.

For Picrotoxin, the “inhibition of specific” value on 5-HT3AB receptors [1] was “not”; on 5-HT3A receptors [5] it was “not and unaffected”.
